Experiments:
Format in all cases: functional
ACHN = assay: Anticancer activity against human ACHN cells after 48 hrs by sulforhodamine B assay
HT-29 = assay: Anticancer activity against human HT-29 cells after 48 hrs by sulforhodamine B assay
NCI-H23 = assay: Anticancer activity against human NCI-H23 cells after 48 hrs by sulforhodamine B assay
HCT-15 [1] = assay: Anticancer activity against human HCT15 cells assessed cell growth at 10 uM after 48 hrs by sulforhodamine B assay relative to control
HL-60(TB) = assay: Anticancer activity against human HL-60(TB) cells after 48 hrs by sulforhodamine B assay; conditions: for CC50: read-out: LC50 (the source's name)
MOLT-4 [2] = assay: Anticancer activity against human MOLT4 cells after 48 hrs by sulforhodamine B assay
SK-OV-3 = assay: Anticancer activity against human SKOV3 cells after 48 hrs by sulforhodamine B assay
OVCAR-4 = assay: Anticancer activity against human OVCAR4 cells after 48 hrs by sulforhodamine B assay
A498 [3] = assay: Anticancer activity against human A498 cells assessed cell growth at 10 uM after 48 hrs by sulforhodamine B assay relative to control
MCF7 = assay: Anticancer activity against human MCF7 cells after 48 hrs by sulforhodamine B assay
OVCAR-8 [4] = assay: Anticancer activity against human OVCAR8 cells after 48 hrs by sulforhodamine B assay
NCI-H460 = assay: Anticancer activity against human NCI-H460 cells after 48 hrs by sulforhodamine B assay
KM12 = assay: Anticancer activity against human KM12 cells assessed cell growth at 10 uM after 48 hrs by sulforhodamine B assay relative to control
NCI-H226 = assay: Anticancer activity against human NCI-H226 cells after 48 hrs by sulforhodamine B assay
MDA-MB-231 = assay: Anticancer activity against human MDA-MB-231 cells after 48 hrs by sulforhodamine B assay; conditions: for CC50: read-out: LC50 (the source's name)
RXF 393 = assay: Anticancer activity against human RXF393 cells after 48 hrs by sulforhodamine B assay
UACC-62 = assay: Anticancer activity against human UACC62 cells after 48 hrs by sulforhodamine B assay
A549 [5] = assay: Anticancer activity against human A549 cells after 48 hrs by sulforhodamine B assay
HCT-15 [6] = assay: Anticancer activity against human HCT15 cells after 48 hrs by sulforhodamine B assay
SK-MEL-5 = assay: Anticancer activity against human SK-MEL-5 cells after 48 hrs by sulforhodamine B assay; conditions: for CC50: read-out: LC50 (the source's name)
OVCAR-3 = assay: Anticancer activity against human OVCAR-3 cells assessed cell growth at 10 uM after 48 hrs by sulforhodamine B assay relative to control
EKVX = assay: Anticancer activity against human EKVX cells after 48 hrs by sulforhodamine B assay
SF-295 [7] = assay: Anticancer activity against human SF295 cells after 48 hrs by sulforhodamine B assay
A498 [8] = assay: Anticancer activity against human A498 cells after 48 hrs by sulforhodamine B assay
A549 [9] = assay: Anticancer activity against human A549 cells assessed cell growth at 10 uM after 48 hrs by sulforhodamine B assay relative to control
MDA-MB-468 = assay: Anticancer activity against human MDA-MB-468 cells after 48 hrs by sulforhodamine B assay
COLO 205 = assay: Anticancer activity against human COLO205 cells assessed cell growth at 10 uM after 48 hrs by sulforhodamine B assay relative to control
NCI-H322M [10] = assay: Anticancer activity against human NCI-H322M cells assessed cell growth at 10 uM after 48 hrs by sulforhodamine B assay relative to control
[11] = Anticancer activity against human […] cells after 48 hrs by sulforhodamine B assay; conditions: for CC50: read-out: LC50 (the source's name)
NCI-H522 = assay: Anticancer activity against human NCI-H522 cells after 48 hrs by sulforhodamine B assay
SN12C = assay: Anticancer activity against human SN12C cells assessed cell growth at 10 uM after 48 hrs by sulforhodamine B assay relative to control
U-251 = assay: Anticancer activity against human U251 cells assessed cell growth at 10 uM after 48 hrs by sulforhodamine B assay relative to control
MOLT-4 [12] = assay: Anticancer activity against human MOLT4 cells assessed cell growth at 10 uM after 48 hrs by sulforhodamine B assay relative to control
BT-549 = assay: Anticancer activity against human BT549 cells assessed cell growth at 10 uM after 48 hrs by sulforhodamine B assay relative to control
UACC-257 = assay: Anticancer activity against human UACC257 cells after 48 hrs by sulforhodamine B assay
SF-295 [13] = assay: Anticancer activity against human SF295 cells assessed cell growth at 10 uM after 48 hrs by sulforhodamine B assay relative to control
SR = assay: Anticancer activity against human SR cells after 48 hrs by sulforhodamine B assay; conditions: for CC50: read-out: LC50 (the source's name)
NCI-H322M [14] = assay: Anticancer activity against human NCI-H322M cells after 48 hrs by sulforhodamine B assay
SF-539 = assay: Anticancer activity against human SF539 cells assessed cell growth at 10 uM after 48 hrs by sulforhodamine B assay relative to control
MDA-MB-435 = assay: Anticancer activity against human MDA-MB-435 cells after 48 hrs by sulforhodamine B assay; conditions: for CC50: read-out: LC50 (the source's name)
OVCAR-8 [15] = assay: Anticancer activity against human OVCAR8 cells assessed cell growth at 10 uM after 48 hrs by sulforhodamine B assay relative to control

## CCCCCCCCCCCC[n+]1ccn(C)c1.F[B-](F)(F)F
ACHN
  GI50: 10 µM
HT-29
  GI50: 2.19 µM
NCI-H23
  GI50: 2.44 µM
HCT-15 [1]
  Activity: 82.38%
HL-60(TB)
  GI50: 0.324 µM
  CC50: 9.93 µM
MOLT-4 [2]
  GI50: 2.58 µM
SK-OV-3
  GI50: 5.97 µM
OVCAR-4
  GI50: 2.59 µM
A498 [3]
  Activity: 35.81%
MCF7
  GI50: 1.95 µM
OVCAR-8 [4]
  GI50: 3.25 µM
NCI-H460
  GI50: 4.29 µM
KM12
  Activity: 21.76%
NCI-H226
  GI50: 4.62 µM
MDA-MB-231
  GI50: 4.68 µM
  CC50: 64.2 µM
RXF 393
  GI50: 6.52 µM
UACC-62
  GI50: 4.25 µM
A549 [5]
  GI50: 7.14 µM
HCT-15 [6]
  GI50: 18.1 µM
SK-MEL-5
  GI50: 1.66 µM
  CC50: 54.5 µM
OVCAR-3
  Activity: 55.26%
EKVX
  GI50: 0.792 µM
SF-295 [7]
  GI50: 2.93 µM
A498 [8]
  GI50: 7.53 µM
A549 [9]
  Activity: 37.89%
MDA-MB-468
  GI50: 0.556 µM
COLO 205
  Activity: 15.15%
NCI-H322M [10]
  Activity: 67.4%
[11]
  GI50: 0.312 µM
  CC50: 9.48 µM
NCI-H522
  GI50: 2.96 µM
SN12C
  Activity: 21.24%
U-251
  Activity: 36.74%
MOLT-4 [12]
  Activity: 71.98%
BT-549
  Activity: 1.51%
UACC-257
  GI50: 3.06 µM
SF-295 [13]
  Activity: 34.1%
SR
  GI50: 1.06 µM
  CC50: > 100 µM
NCI-H322M [14]
  GI50: 24.6 µM
SF-539
  Activity: 35.07%
MDA-MB-435
  GI50: 2.15 µM
  CC50: 77.5 µM
OVCAR-8 [15]
  Activity: 13.12%

## CCCCCCCCCCCCCCCCCC[n+]1ccn(C)c1.O=S(=O)([N-]S(=O)(=O)C(F)(F)F)C(F)(F)F
ACHN; Homo sapiens, ACHN, 48 h
  GI50: 0.92 µM
  LC50: 4.78 µM
HT-29; Homo sapiens, HT-29, 48 h
  GI50: 0.378 µM
HT-29; Homo sapiens, HT-29, 48 h, read-out: LC50 (the source's name)
  CC50: 9.13 µM
NCI-H23; Homo sapiens, NCI-H23, 48 h
  GI50: 0.407 µM
NCI-H23; Homo sapiens, NCI-H23, 48 h, read-out: LC50 (the source's name)
  CC50: 7.7 µM
HCT-15 [1]
  Activity: -54.83%
HL-60(TB); Homo sapiens, HL-60, 48 h
  GI50: 0.293 µM
  CC50: > 100 µM
MOLT-4 [2]; Homo sapiens, MOLT-4, 48 h
  GI50: 0.65 µM
  LC50: > 100 µM
SK-OV-3; Homo sapiens, SK-OV-3, 48 h
  GI50: 1.16 µM
SK-OV-3; Homo sapiens, SK-OV-3, 48 h, read-out: LC50 (the source's name)
  CC50: 5.82 µM
OVCAR-4; Homo sapiens, OVCAR-4, 48 h
  GI50: 0.351 µM
OVCAR-4; Homo sapiens, OVCAR-4, 48 h, read-out: LC50 (the source's name)
  CC50: > 100 µM
A498 [3]
  Activity: -44.9%
MCF7; Homo sapiens, MCF7, 48 h
  GI50: 1 µM
  LC50 (50% cell kill): 5.52 µM
OVCAR-8 [4]; Homo sapiens, OVCAR-8, 48 h
  GI50: 0.913 µM
  LC50: > 100 µM
NCI-H460; Homo sapiens, NCI-H460, 48 h
  GI50: 0.663 µM
  LC50: 5.24 µM
KM12
  Activity: -61.9%
NCI-H226; Homo sapiens, NCI-H226, 48 h
  GI50: 1.26 µM
  LC50: 8 µM
MDA-MB-231; Homo sapiens, MDA-MB-231, 48 h
  GI50: 1.04 µM
  CC50: 5.93 µM
RXF 393; Homo sapiens, RXF 393, 48 h
  GI50: 1.03 µM
  LC50: 6.55 µM
UACC-62; Homo sapiens, UACC-62, 48 h
  GI50: 1.04 µM
  LC50: 5.1 µM
A549 [5]; Homo sapiens, A549, 48 h
  GI50: 1.18 µM
  LC50 (concentration killing 50% of cells): > 100 µM
HCT-15 [6]; Homo sapiens, HCT-15, 48 h
  GI50: 1.07 µM
HCT-15 [6]; Homo sapiens, HCT-15, 48 h, read-out: LC50 (the source's name)
  CC50: 5.94 µM
SK-MEL-5; Homo sapiens, SK-MEL-5, 48 h
  GI50: 0.532 µM
  CC50: 4.21 µM
OVCAR-3
  Activity: -56.27%
EKVX; Homo sapiens, EKVX, 48 h
  GI50: 0.673 µM
EKVX; Homo sapiens, EKVX, 48 h, read-out: LC50 (the source's name)
  CC50: 5.76 µM
SF-295 [7]; Homo sapiens, SF-295, 48 h
  GI50: 0.484 µM
SF-295 [7]; Homo sapiens, SF-295, 48 h, read-out: LC50 (the source's name)
  CC50: 6.61 µM
A498 [8]; Homo sapiens, A498, 48 h
  GI50: 1.07 µM
A498 [8]; Homo sapiens, A498, 48 h, read-out: LC50 (the source's name)
  CC50: 6.22 µM
A549 [9]
  Activity: -47.24%
MDA-MB-468; Homo sapiens, MDA-MB-468, 48 h
  GI50: 0.196 µM
  LC50: > 100 µM
COLO 205
  Activity: -47.26%
NCI-H322M [10]
  Activity: 6.16%
[11]; Homo sapiens, RPMI8266, 48 h
  GI50: 0.062 µM
  CC50: > 100 µM
NCI-H522; Homo sapiens, NCI-H522, 48 h
  GI50: 1.02 µM
  LC50: > 100 µM
SN12C
  Activity: -68.39%
U-251
  Activity: -63.9%
MOLT-4 [12]
  Activity: 9.25%
BT-549
  Activity: -54.97%
UACC-257; Homo sapiens, UACC-257, 48 h
  GI50: 1.53 µM
  LC50: > 100 µM
SF-295 [13]
  Activity: -21.51%
SR; Homo sapiens, SR, 48 h
  GI50: 1.24 µM
  CC50: > 100 µM
NCI-H322M [14]; Homo sapiens, NCI-H322M, 48 h
  GI50: 1.52 µM
  LC50: 6.4 µM
SF-539
  Activity: -82.94%
MDA-MB-435; Homo sapiens, MDA-MB-435, 48 h
  GI50: 1.08 µM
  CC50: 6.69 µM
OVCAR-8 [15]
  Activity: -37.35%
